Laboratory results taken from US20120101121A1, “DRUG DEMONSTRATING ANXIOLYTIC EFFECT BASED ON HYDROGENATED PYRIDO (4,3-B) INDOLES, ITS PHARMACOLOGICAL COMPOUND AND APPLICATION METHOD” (Medivation Neurology ,Inc., priority 2007, published 2012).

What was measured:
white outbred male rats [1] = assay: Elevated plus-maze (EPM) in rats; settings: for Latent time / Number of entries into bright arms / Number of entries into dark arms / Time in bright arms / Total number of crossings: 40 min after dosing, 5 min observation
Method: The model is based on stress and fear, which appear in animals while displaying orientation-investigative behavior and burrowing reflex under the complicated conditions of elevated plus-maze (novelty of surroundings, fear of height and illumination).
EPM for rats is performed in a chamber consisting of four compartments formed by the crossing of two strips measuring 50×10 cm. Two opposing compartments have vertical walls 40 cm high (protected dark arms), while two others (unprotected open bright arms) are free from protective walls. The maze is elevated 50 cm off the floor. At the center of the chamber where the two strips cross, there is a central platform measuring 10×10 cm. Rats were placed on the central platform with their tails facing an open bright arm. Time remaining on the central platform, time spent by the animals inside the open arms, and the number of entries into open and closed arms were recorded. The total observation time for each animal was 5 minutes. The main criterion of anxiolytic effect is the measure of time spent in the open bright arm of the setup. The number of crossings the central platform (number of entries into the dark and bright arms of the maze and the sum thereof) was used to estimate the effect of compounds on orientation-investigative behavior and motion activity of rats.
Experiments were conducted using white outbred male rats weighing 240 g to 280 g. Before beginning the test, experimental animals were randomly separated into groups of at least 10 rats. […] Rats in the control group received 0.2 ml water per 100 g mass administered intraperitoneally. Data was recorded beginning forty minutes after administration of the compounds.

outbred white male rats = assay: Vogel conflict situation test (punishable drinkings); format: in vivo, rat; settings: for No. of punishable drinkings: 40 min before test, 10 min registration
Method: 93-113). Such conflict situations most frequently lead to stress and neurotic diseases.
The tests were conducted using outbred white male rats with body weights between 220 g and 250 g. […] The conflict situation was created by suppressing the drinking reflex during water consumption from the drinking tube using algesic electric stimulus (i.e., electric shock causing pain). Thus, the Vogel conflict method is based on the conflict of two motivations: drinking and defensive. Thus, the animal fears punishment when attempting to satisfy its thirst, and that fear suppresses typical animal behavior. The animal cannot satisfy its thirst, creating an imbalance between what is desirable and what is real, thereby resulting in a stressful situation, accompanied by anxiety and fear of receiving an additional algesic electric stimulus. If a test compound has anxiolytic effect, it will enable the animal to overcome anxiety and fear of the punishment factor, restoring the ability to drink despite the possibility of receiving additional algesic electric stimuli, measured as an increase in incidents of punishable responses, i.e., drinking, despite the continued risk of receiving algesic electric stimuli.
The experimental setup consists of three parts: 4 experimental chambers, an electronic unit and a counting device. The experimental chamber measures 275×275×450 mm and is made of Plexiglas. It is installed on a standard electrode floor made of 4 mm diameter stainless steel rods spaced by 8-10 mm apart. Attached to the side wall of each chamber is a standard drinking tube attached to a glass container including a stainless steel nipple. In the device, the drinking tube is installed within common space of the chamber, not in the darkened section. The nipple extends 2 cm into the chamber at a height of 5 cm from the floor. The reason for such arrangement is that once exposed to a new environment, the animals instinctively attempt to hide in the dark section, and therefore may accidentally find a drinking tube, not as a consequence of purposeful search to satisfy the motivation. The electrode floor and the nipple of the drinking tube are connected to the electronic unit. The electronic unit contains current stabilizers (one per channel, which provides the possibility of independent current regulation), output signal generators for the counting device and delay generators for supplying punishing current to the drinking tube during the day of the experiment. That arrangement permits registration of non-punishable drinkings while establishing a drinking habit (trainings without supplying current to the drinking tubes), administration of a punishment current, and recordation of signals from punishable drinkings during the experiment.
The counting device enables registration of non-punishable drinkings during training and punishable drinkings during the experiment. Registration of readings was conducted using Pentium III personal computer with a 550 MHz C.P.U., a special device for converting output signals from the electronic unit into standard pulses suitable for inputting to the computer via a serial port, and a program written in BASIC (Beginner's All-Purpose Symbolic Instruction Code) for recording events and time intervals into disc files. The data accumulated in these files was later analyzed with the statistical package Statistica® for Windows®.
The experiment was conducted for 3 days. On the first day, the animals were completely deprived of water. On the second day, i.e., after 24-hours without water, animals were allowed to establish a habit of taking water from the drinking tube. To achieve this, animals were placed in the experimental chamber for 5 minutes. Typically, each animal surveyed the chamber and after a period of time found a drinking tube and started to drink. On the […] day, a weak current of 50 μA was applied to the drinking tube and the chamber floor. […]

white outbred male rats [2] = assay: Open field test under stress; settings: for Exits to the center of the field / Horizontal activity / Surveyed holes / Vertical activity: 40 min after dosing, 3 min observation
Method: The “open field” test uses a method of creating stress based on a rat's fear of new surroundings, open space and bright illumination.
An open field setup used in this study consisted of a one meter square box (1 m×1 m×1 m) with a clear top. The floor of the chamber was uniformly divided by lines into 9 squares, with 16 2.5 cm diameter holes. Before the experiment, rats were kept in the dark for 10 minutes, after which they were placed onto one of the peripheral squares of the open field. […] During the experiment the following information was recorded: the number of crossed squares on the periphery and in the center (separately), the number of vertical stands, the number of times holes were surveyed, and the number of exits to the center of the open field.
The main indicator of anxiolytic effect of the drugs was the measure of number of exits by the rat to the center of illuminated field. Increase or decrease in the number of horizontal or vertical movements reflected sedative or stimulating effect of the drug, while the number of holes surveyed reflects orientation-investigative behavior of the rat.
Experiments were conducted using white outbred male rats weighing 240 g to 280 g. Before the beginning of the test, experimental animals were randomly separated into groups containing at least 10 rats. […] Rats in the control group received 0.2 ml water per 100 g mass administered intraperitoneally. Data was recorded beginning 40 minutes after administering the compounds.

SAM-P/10 mice = assay: Elevated plus-maze in SAM-P/10 mice with genetically determined anxiety; format: in vivo, mouse; settings: 11-month old SAM-P/10 mice; for Latent time / Number of entries into bright arms / Number of entries into dark arms / Time in bright arms / Total number of crossings: 40 min prior to testing, 5 min observation
Excerpt: One of the modern methods of studying the anxiolytic effect of drugs uses a mouse strain with an increased level of anxiety. This study utilized mice of the SAM-P/10 line (Takeda, T., et al., “Senescence-Accelerated Mouse (SAM): A Novel Murine Model of Accelerated Senescence,” J. Amer. Geriatr. Soc., 1991, v. 39, pp. 911-919) weighing between 26 g and 31 g, in which, among other changes, a genetically determined anxiety is observed. […] Those symptoms actively accumulate beginning from the age of 6-months (accelerated aging) (Miyamoto, M., “Indicators of age-related behavioral changes in Senescence-Accelerated Mouse SAMP8 and SAMP10,” Exp. Gerontol., 1997, v. 32, pp. 139-148; and Shimada, A., et al., “Age-related deterioration in conditional avoidance task in the SAM-P/10 mouse, an animal model of spontaneous brain atrophy,” Brain Res., 1993, v. 608, pp. 266-272).
This study utilized SAM-P/10 (Senescence-Accelerated Mouse P10) mice in two age groups—3-months and 11-months old. A group of 3-month old animals and a group of 11-month old animals were each divided into three subgroups: one group received Dimebon at a dose of 0.05 mg/kg, the second group received Dimebon at a dose of 2 mg/kg, and the third group received physiological saline. All substances were administered intraperitoneally 40 minutes prior to testing in the amount of 0.1 ml per 10 g of mouse weight. This study was conducted during the first half of the day from 10:00 a.m. to 2:00 p.m.
The maze is elevated 30 cm off the floor. […] Time spent by mice in the open arms of the maze was used as a main indicator of anxiety level.

AMPA receptors = settings: cerebral neurons in rats; cited from earlier work
NMDA receptors = settings: cerebral neurons in rats; cited from earlier work

CN1C(=O)CN=C(c2ccccc2)c2cc(Cl)ccc21 [Diazepam ®, reference compound]
Sedative effect in elevated plus-maze (in words) (white outbred male rats [1]; 2 mg/kg i.p.): sedative, depriming effect
Latent time (white outbred male rats [1]; 2.0 mg/kg i.p.): 7.68 ± 2.0 s
Number of entries into bright arms (white outbred male rats [1]; 2.0 mg/kg i.p.): 2.12 ± 1.08
Number of entries into dark arms (white outbred male rats [1]; 2.0 mg/kg i.p.): 2.20 ± 0.47
Time in bright arms (white outbred male rats [1]; 2.0 mg/kg i.p.): 25.6 ± 6.87 s
Total number of crossings (white outbred male rats [1]; 2.0 mg/kg i.p.): 4.32 ± 1.01
No. of punishable drinkings (outbred white male rats; 2.0 mg/kg i.p.): 372.71 ± 27.81
Side effects at the anxiolytic dose (in words) (outbred white male rats; therapeutic dose of 2 mg/kg): sedation, reduction in motion activity and impaired coordination
Effect on horizontal and vertical motion activity within the open field (in words) (white outbred male rats [2]; 2 mg/kg): significantly suppressed
Exits to the center of the field (white outbred male rats [2]; 2 mg/kg i.p.): 1.8 ± 0.3
Horizontal activity (white outbred male rats [2]; 2 mg/kg i.p.): 10.2 ± 1.4
Surveyed holes (white outbred male rats [2]; 2 mg/kg i.p.): 6.5 ± 1.9
Vertical activity (white outbred male rats [2]; 2 mg/kg i.p.): 3.4 ± 1.3

Cc1ccc2c(c1)c1c(n2CCc2ccc(C)nc2)CCN(C)C1 [Dimebon, 2,8-dimethyl-5-[2-(6-methyl-3-pyridyl)ethyl]-2,3,4,5-tetrahydro-1H-pyrido[4,3-b]indole]
Time spent inside the open arms relative to control (white outbred male rats [1]; 0.1 mg/kg i.p.): nearly five times as long as the control
Latent time (white outbred male rats [1]; 0.1 mg/kg i.p.): 3.43 ± 0.53 s
Number of entries into bright arms (white outbred male rats [1]; 0.1 mg/kg i.p.): 1.86 ± 1.00
Number of entries into dark arms (white outbred male rats [1]; 0.1 mg/kg i.p.): 5.86 ± 1.53
Time in bright arms (white outbred male rats [1]; 0.1 mg/kg i.p.): 20.00 ± 7.75 s
Total number of crossings (white outbred male rats [1]; 0.1 mg/kg i.p.): 7.71 ± 2.25
Increase in the number of entries into the open arms (white outbred male rats [1]; 2 mg/kg i.p.): more than twice
Latent time (white outbred male rats [1]; 2.0 mg/kg i.p.): 2.93 ± 0.41 s
Number of entries into bright arms (white outbred male rats [1]; 2.0 mg/kg i.p.): 4.25 ± 1.18
Number of entries into dark arms (white outbred male rats [1]; 2.0 mg/kg i.p.): 7.10 ± 3.21
Time in bright arms (white outbred male rats [1]; 2.0 mg/kg i.p.): 26.34 ± 8.12 s
Total number of crossings (white outbred male rats [1]; 2.0 mg/kg i.p.): 11.60 ± 3.30
Increase in total number of crossings (white outbred male rats [1]; 2 mg/kg i.p., P≦0.05): 2 times
Time spent in the open, unprotected arms relative to control (in words) (SAM-P/10 mice; 0.05 mg/kg): doubled
Latent time (SAM-P/10 mice; 0.05 mg/kg i.p.): 7.5 ± 1.5 s
Number of entries into bright arms (SAM-P/10 mice; 0.05 mg/kg i.p.): 1.9 ± 1.0
Number of entries into dark arms (SAM-P/10 mice; 0.05 mg/kg i.p.): 5.86 ± 1.53
Time in bright arms (SAM-P/10 mice; 0.05 mg/kg i.p.): 8.7 ± 3.3 s
Total number of crossings (SAM-P/10 mice; 0.05 mg/kg i.p.): 11.7 ± 1.5
Increase in the number of entries into the open arms (SAM-P/10 mice; 2 mg/kg): more than 4 fold
Increase in the time spent in the open arms (SAM-P/10 mice; 2 mg/kg): more than 4 fold
Latent time (SAM-P/10 mice; 2.0 mg/kg i.p.): 6.0 ± 1.4 s
Number of entries into bright arms (SAM-P/10 mice; 2.0 mg/kg i.p.): 4.2 ± 1.1
Number of entries into dark arms (SAM-P/10 mice; 2.0 mg/kg i.p.): 7.10 ± 3.21
Time in bright arms (SAM-P/10 mice; 2.0 mg/kg i.p.): 17.7 ± 5.2 s
Total number of crossings (SAM-P/10 mice; 2.0 mg/kg i.p.): 18.1 ± 5.3
No. of punishable drinkings (outbred white male rats; 0.05 mg/kg i.p.): 171.31 ± 15.67
No. of punishable drinkings (outbred white male rats; 0.1 mg/kg i.p.): 261.18 ± 29.74
No. of punishable drinkings (outbred white male rats; 2.0 mg/kg i.p.): 354.25 ± 32.49
No. of punishable drinkings (outbred white male rats; 5.0 mg/kg i.p.): 405.33 ± 26.35
Change in punishable drinkings versus control (in words) (outbred white male rats; dose range 0.1 to 5 mg/kg i.p.): statistically significant increase
Sedative and muscle relaxant side effects (in words) (outbred white male rats; doses 0.1-5.0 mg/kg): lacks the sedative and muscle relaxant side effects
Effect on transmembrane currents caused by activation of the AMPA receptors (AMPA receptors): potentiates
Exits to the center of the field (white outbred male rats [2]; 0.1 mg/kg i.p.): 0.8 ± 0.3
Horizontal activity (white outbred male rats [2]; 0.1 mg/kg i.p.): 21.7 ± 5.9
Surveyed holes (white outbred male rats [2]; 0.1 mg/kg i.p.): 12.3 ± 1.7
Vertical activity (white outbred male rats [2]; 0.1 mg/kg i.p.): 7.8 ± 1.3
Exits to the center of the field (white outbred male rats [2]; 2 mg/kg i.p.): 1.5 ± 0.2
Horizontal activity (white outbred male rats [2]; 2 mg/kg i.p.): 20.3 ± 6.1
Surveyed holes (white outbred male rats [2]; 2 mg/kg i.p.): 11.2 ± 2.6
Vertical activity (white outbred male rats [2]; 2 mg/kg i.p.): 6.9 ± 3.2
Exits to the center of the field (white outbred male rats [2]; 5 mg/kg i.p.): 2.2 ± 0.3
Horizontal activity (white outbred male rats [2]; 5 mg/kg i.p.): 19.2 ± 2.4
Surveyed holes (white outbred male rats [2]; 5 mg/kg i.p.): 13.5 ± 1.9
Vertical activity (white outbred male rats [2]; 5 mg/kg i.p.): 9.3 ± 2.4
Effect on number of horizontal and vertical movements and surveyed holes (in words) (white outbred male rats [2]; doses of 0.1, 2 and 5 mg/kg): did not cause a decrease
Anxiolytic effect in the open field test (in words) (white outbred male rats [2]; doses of 2 and 5 mg/kg): significant, pronounced anxiolytic effect
Effect on NMDA receptors (NMDA receptors): blocking
